We go through 12 molecules from paper PMC9301698 (ACS Omega, 2022).

A word on the IC50: it is the point on the concentration scale where inhibition reaches its midpoint. The term viability denotes a read-out of living cells in per cent, often relative to untreated cells.

One series addresses butyrylcholinesterase. As to conditions: read-out: butyrylcholinesterase inhibitory activity IC50; cited from earlier work.
For another series, the system named is HT-29. As to conditions: read-out: cytotoxicity against HT-29 IC50; cited from earlier work.
In the next series the test system is A549 cells. Nature of the series: MTT cytotoxicity assay, lung cancer. Type of series: cell-based, human. The note with it: Homo sapiens, A549, read-out: IC50 A549 (lung cancer). (In general: Tetrazolium assays rely on reduction of a dye to a coloured formazan, in cell work by metabolically active cells.)
The test system of a further series is K562 cells. Briefly: MTT cytotoxicity assay, leukemia. In kind it is cell-based, human. The note with it: Homo sapiens, K562, read-out: IC50 K562 (leukemia), MTT.
The nature of series [1]: cytotoxicity screening, summary over cell lines. Type of series: cell-based. The note with it: mouse, human.
The subject of another series is RAW 264.7 cells. Briefly: MTT cytotoxicity assay in mammalian cells. Type of series: cell-based. The note with it: Mus musculus, RAW264.7, read-out: IC50 RAW 264.7, MTT.
Series [2] can be described thus: MTT cytotoxicity assay, colorectal cancer. Type of series: cell-based, human. The note with it: human, SW480 cells (colorectal cancer).
The subject of a further series is SW480 cells. Briefly: MTT cytotoxicity assay, colorectal cancer. Type of series: cell-based, human. As to conditions: Homo sapiens, SW480, read-out: IC50 SW480 (Colorectal cancer), MTT.
Series [3] is described as follows: MTT cytotoxicity assay in mammalian cells. As to conditions: mouse, RAW 264.7 cells. Type of series: cell-based.
Series [4] in a line: MTT cytotoxicity assay, lung cancer. In kind it is cell-based, human. As to conditions: human, A549 cells (lung cancer).
A short description of series [5]: MTT cytotoxicity assay, leukemia. In kind it is cell-based, human. The note with it: human, K562 cells (leukemia).
Series [6] has as its target T1, α-glucosidase (Saccharomyces cerevisiae, UniProt P53341). Briefly: colorimetric α-glucosidase inhibitory assay. Type of series: biochemical. As to conditions: mean ± SD.
For another series, the target named is T2, α-amylase (Sus scrofa, UniProt P00690).
T2 sequence (P00690 16-511): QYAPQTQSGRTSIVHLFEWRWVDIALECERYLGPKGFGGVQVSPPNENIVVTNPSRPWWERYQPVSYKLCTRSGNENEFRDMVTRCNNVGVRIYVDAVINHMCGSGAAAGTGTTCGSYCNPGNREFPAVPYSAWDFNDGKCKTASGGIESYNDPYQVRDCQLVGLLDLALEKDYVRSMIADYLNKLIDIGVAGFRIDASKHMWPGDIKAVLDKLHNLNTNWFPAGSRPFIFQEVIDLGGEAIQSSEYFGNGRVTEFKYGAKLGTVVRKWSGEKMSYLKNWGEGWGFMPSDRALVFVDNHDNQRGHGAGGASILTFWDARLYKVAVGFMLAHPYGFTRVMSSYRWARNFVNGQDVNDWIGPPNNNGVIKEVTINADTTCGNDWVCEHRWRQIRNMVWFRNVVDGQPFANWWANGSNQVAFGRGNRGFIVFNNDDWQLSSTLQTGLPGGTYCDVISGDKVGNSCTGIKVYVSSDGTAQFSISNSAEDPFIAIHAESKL
Briefly: α-amylase inhibitory assay. In kind it is biochemical. As to conditions: at a concentration of 100 μg/mL; mean ± SD.

Another series relates to HepG2 cell lines. The note with it: read-out: cytotoxicity against HepG2 cell lines IC50; cited from earlier work.
For series [7] the following is noted: cited from earlier work.
In series [8] the target is T1, α-glucosidase. The note with it: read-out: α-glucosidase inhibitory activity IC50; cited from earlier work.

T1 sequence (P53341 whole entry): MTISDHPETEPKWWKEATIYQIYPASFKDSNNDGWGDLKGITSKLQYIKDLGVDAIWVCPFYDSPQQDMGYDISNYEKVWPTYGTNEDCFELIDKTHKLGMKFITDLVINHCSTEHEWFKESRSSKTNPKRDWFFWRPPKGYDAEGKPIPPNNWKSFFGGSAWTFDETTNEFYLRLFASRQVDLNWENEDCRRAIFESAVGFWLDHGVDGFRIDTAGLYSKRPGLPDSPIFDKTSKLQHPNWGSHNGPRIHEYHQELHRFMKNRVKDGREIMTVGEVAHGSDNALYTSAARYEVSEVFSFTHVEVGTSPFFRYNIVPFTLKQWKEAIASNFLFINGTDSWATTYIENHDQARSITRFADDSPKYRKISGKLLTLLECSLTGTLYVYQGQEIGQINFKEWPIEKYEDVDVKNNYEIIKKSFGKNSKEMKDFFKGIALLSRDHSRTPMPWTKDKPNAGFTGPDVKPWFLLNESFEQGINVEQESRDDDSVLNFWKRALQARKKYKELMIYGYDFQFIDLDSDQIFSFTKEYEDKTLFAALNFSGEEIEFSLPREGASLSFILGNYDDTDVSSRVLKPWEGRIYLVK

As for `COc1ccc(-c2coc3c4c(ccc3c2=O)OC(C)(C)C=C4)cc1OC` [4′,5′-dimethoxy-6,6-dimethylpyranoisoflavone], the IC50 at butyrylcholinesterase is 2.34 µM.

On to `C=C(C)[C@H]1Cc2c(ccc3c2O[C@@H]2COc4cc(OC)c(OC)cc4[C@]2(O)C3=O)O1` [(−)-Hydroxyrotenone], for which the IC50 in the series with HT-29 was 0.1 µM.

In the case of `C=C(C)[C@H]1Cc2c(ccc3c2O[C@@H]2COc4cc(OC)c(OC)cc4[C@@H]2C3=O)O1` [(−)-rotenone], the IC50 with HT-29 is 0.3 µM.

As for `CC(C)=CCc1c(O)c(CC=C(C)C)c2occ(-c3ccc(O)cc3)c(=O)c2c1O` [Compound 10, 6,8-diprenylgenistein], the IC50 with A549 cells is more than 100 µM. The IC50 in the series on K562 cells is more than 100 µM. The viability in [1] (RAW 264.7 and SW480 cells) was in the range of 5.66 to 77%. Also, in the series with RAW 264.7 cells, the IC50 was more than 100 µM. Besides, in [2], the viability at 6.25 μg/mL was 117.5 ± 0.31%, the viability at 12.5 μg/mL stood at 118.8 ± 0.92%, the viability at 25 μg/mL turned out to be 117 ± 3.08% and the viability at 50 μg/mL came to 94.7 ± 3.85%. In addition, the viability at 100 μg/mL in series [2] came to 77 ± 3.95%. For the same molecule, in the series with SW480 cells, the IC50 was more than 100 µM.

Consider `C=C(C)C(O)Cc1c(O)c(CC=C(C)C)c2occ(-c3ccc(O)cc3)c(=O)c2c1O` (centres unmarked) [Compound 13, isoerysenegalensein E], for which, in the series on A549 cells, the IC50 is more than 100 µM. Further, the IC50 with K562 cells is more than 100 µM. In series [1] (RAW 264.7 and SW480 cells), the viability lay within 5.66 to 77%. For the same molecule, in series [3], the viability at 24 h, 6.25 μg/mL was 103 ± 8.01%; the viability at 24 h, 12.5 μg/mL came out at 100 ± 2.13%; the viability at 24 h, 25 μg/mL came to 61.9 ± 3.12%; the viability at 24 h, 50 μg/mL was found to be 47.3 ± 2.94%. Also, the viability at 24 h, 100 μg/mL in series [3] came out at 29.4 ± 3.72%. Further, in the series on RAW 264.7 cells, the IC50 was 56.1 µM. In addition, in series [2], the viability at 6.25 μg/mL came out at 94 ± 4.18%, the viability at 12.5 μg/mL is 92.8 ± 1.57%, the viability at 25 μg/mL was 90.4 ± 1.91% and the viability at 50 μg/mL turned out to be 89.5 ± 3.29%. The viability at 100 μg/mL in [2] is 59.5 ± 1.3%. For the same molecule, in the series with SW480 cells, the IC50 was more than 100 µM.

Regarding `CC(C)=CCc1c2c(c3occ(-c4ccc(O)cc4)c(=O)c3c1O)CC(C(C)(C)O)O2` (centres unmarked) [Compound 16, senegalensin], in series [4], the viability at 6.25 μg/mL came out at 126 ± 1.36%, the viability at 12.5 μg/mL came out at 116 ± 2.68%, the viability at 25 μg/mL was 97 ± 9.76% and the viability at 50 μg/mL is 6.25 ± 0.33%. In series [4], the viability at 100 μg/mL came out at 4.53 ± 0.07%. For the same molecule, in the series on A549 cells, the IC50 came to 70.9 µM. In series [5], the viability at 6.25 μg/mL is 76.6 ± 3.38%, the viability at 12.5 μg/mL was found to be 28.8 ± 0.39%, the viability at 25 μg/mL is 11.54 ± 0.06% and the viability at 50 μg/mL came to 10.2 ± 0.15%. In addition, in series [5], the viability at 100 μg/mL was determined as 9.7 ± 0.15%. The IC50 in the series with K562 cells came out at 21.5 µM. For the same molecule, the viability in series [1] (A549, SW480, K562 and RAW 264.7 cells) was in the range of 4.53 to 48.2%. In addition, in series [3], the viability at 24 h, 6.25 μg/mL was 154 ± 1.59%; the viability at 24 h, 12.5 μg/mL is 139 ± 6.94%; the viability at 24 h, 25 μg/mL was determined as 58.7 ± 2.23%; the viability at 24 h, 50 μg/mL came to 6 ± 0.65%. In addition, the viability at 24 h, 100 μg/mL in [3] is 5.3 ± 0.01%. Moreover, in the series with RAW 264.7 cells, the IC50 turned out to be 51.5 µM. Also, in series [2], the viability at 6.25 μg/mL came to 166 ± 6.12%, the viability at 12.5 μg/mL was 142 ± 1.71%, the viability at 25 μg/mL is 122 ± 6.64% and the viability at 50 μg/mL amounted to 6.6 ± 0.14%. In [2], the viability at 100 μg/mL stood at 6.09 ± 0.11%. Also, the IC50 with SW480 cells was found to be 69.8 µM.

With `C[C@H]1O[C@H](O[C@H]2[C@H](O)[C@@H](O)[C@@H](O[C@H]3[C@H](O)[C@@H](O)C(O)O[C@@H]3CO)O[C@@H]2CO)[C@H](O)[C@@H](O)[C@@H]1N[C@H]1C=C(CO)[C@@H](O)[C@H](O)[C@H]1O` (some centres unmarked) [acarbose], on α-glucosidase [6], the “α-glucosidase inhibition, inhibition rate (%)” value was found to be 57.2 ± 0.8%. Also, at α-amylase, the “α-amylase inhibition, inhibition rate (%)” value was 58.5 ± 1.9%.

`COc1cc(OC)c(-c2coc3c4c(ccc3c2=O)OC(C)(C)C=C4)cc1OC` [barbigerone]: the IC50 with HepG2 cell lines was 0.61 µM.

For the molecule `COc1cc2c(cc1OC)[C@@H]1C(=O)c3ccc4c(c3O[C@@H]1CO2)C=CC(C)(C)O4` [deguelin], the IC50 on butyrylcholinesterase was 14.2 µM.

Regarding `COc1cccc2c1C(=O)c1c(O)c3c(c(O)c1C2=O)C[C@@](O)(C(=O)CO)C[C@@H]3O[C@H]1C[C@H](N)[C@H](O)[C@H](C)O1` [doxorubicin, reference compound], in [4], the viability at 6.25 μg/mL was 79.6 ± 1.89%, the viability at 12.5 μg/mL is 74 ± 0.75%, the viability at 25 μg/mL turned out to be 57.7 ± 1.71% and the viability at 50 μg/mL was found to be 52.8 ± 1.51%. Moreover, the viability at 100 μg/mL in series [4] stood at 10.1 ± 3.11%. Moreover, the IC50 in the series on A549 cells came out at 134 µM. Further, in [5], the viability at 12.5 μg/mL stood at 70.3 ± 0.89%, the viability at 25 μg/mL is 59.5 ± 1.8%, the viability at 50 μg/mL was found to be 49.6 ± 2.2% and the viability at 100 μg/mL came to 32.4 ± 0.89%. Also, in the series with K562 cells, the IC50 was 86.8 µM. Further, in [3], the viability at 24 h, 6.25 μg/mL came out at 4.62 ± 0.17%; the viability at 24 h, 12.5 μg/mL is 5.35 ± 0.27%; the viability at 24 h, 25 μg/mL is 4.59 ± 0.01%; the viability at 24 h, 50 μg/mL was determined as 4.44 ± 0.08%. Also, the viability at 24 h, 100 μg/mL in series [3] stood at 5.96 ± 0.42%. Besides, the IC50 in the series with RAW 264.7 cells was less than 11.5 µM. Also, in [2], the viability at 6.25 μg/mL worked out at 80 ± 2.48%, the viability at 12.5 μg/mL is 73.9 ± 1.19%, the viability at 25 μg/mL came to 60.2 ± 1.51% and the viability at 50 μg/mL came out at 17.8 ± 1.49%. In addition, the viability at 100 μg/mL in series [2] was found to be 16.8 ± 1.29%. The IC50 with SW480 cells was 53.4 µM.

As to `COc1cc2c(cc1OC)[C@]1(O)C(=O)c3ccc4c(c3O[C@@H]1CO2)C=CC(C)(C)O4` [tephrosin], in series [7] (at a concentration of 3.125 μM), the cell toxicity result is “without cell toxicity”. The 50% inhibitory concentration (IC50) in series [7] (read-out: anti-inflammatory activity IC50) was less than 10 µM.

In the case of berectones A, the IC50 on α-glucosidase [8] was 144 µM.
